# Laboratory results from patent US20080004266A1, “Method for treating proliferative disorders associated with protooncogene products” (priority 2006, published 2008).
# Entries after “also recorded” stand apart in the source; their conditions may differ.
# Key:
# K562 cells (Bcr-Abl) = assay: Cell survival in K562 cells (Cell Counting Kit-8); assay type: cell-based, human; conditions: Homo sapiens, 72 hours
# Description: Growth of this tumor cell line is dependent upon the expression of the Bcr-Abl fusion protein (C. Gambacarti-Passerini et al., Blood Cells Mol. Dis. 23:380-394, 1997). K562 cells (20,000 cells/well) were cultured in 96-well plates and maintained at 37° C. for several hours. […] 17AAG, DMAG, and Radicical are Hsp90 inhibitors that are currently in clinical trials and are used here as positive controls for Hsp90 inhibition. […] Cell survival was measured with Cell Counting Kit-8 (Dojindo Laboratories, Cat # CK04).
# [1] = system: human tumor cell line MDA-MB-435S; assay: MDA-MB-435S nude mouse xenograft model; assay type: in vivo; conditions: nude mice, 300 mg/kg body weight IP, 5 times per week for 3 weeks, versus vehicle
# Description: FBS was obtained from Sigma-Aldrich Corp. (St. Louis, Mo., USA), and all other reagents were obtained from Invitrogen Corp. (Carlsbad, Calif., USA). Approximately 4−5×10 (6) cells that had been cryopreserved in liquid nitrogen were rapidly thawed at 37° C. and transferred to a 175 cm^2 tissue culture flask containing 50 ml of growth media and then incubated at 37° C. in a 5% CO2 incubator. The growth media was replaced every 2-3 days until the flask became 90% confluent, typically in 5-7 days. To passage and expand the cell line, a 90% confluent flask was washed with 10 ml of room temperature phosphate buffered saline (PBS) and the cells were disassociated by adding 5 ml 1× Trypsin-EDTA (Invitrogen) and incubating at 37° C. until the cells detached from the surface of the flask. To inactivate the trypsin, 5 ml of growth media was added and then the contents of the flask were centrifuged to pellet the cells. The supernatant was aspirated and the cell pellet was resuspended in 10 ml of growth media and the cell number determined using a hemocytometer. […]
# Six to eight week old, female Crl:CD-1-nuBR (nude) mice were obtained from Charles River Laboratories (Wilmington, Mass., USA). […] Tumor volumes (V) were calculated by caliper measurement of the width (W), length (L) and thickness (T) of tumors using the following formula: V=[…]×(L×W×T). […]
# c-kit [2] = assay: FACS-based c-kit degradation assay in Kasumi-1 cells; assay type: cell-based, human; conditions: about 18 h, compounds at 0.5 and 0.05 μM, 17-AAG at 0.5 μM
# Description: (§1) Two leukemia cell lines, HEL92.1.7 and Kasumi-1, were used for testing c-kit degradation induced by Hsp90 inhibitors of the invention. […] The cells were collected and centrifuged (SORVALL RT 6000D) at 1200 rpm for 5 min. The supernatants were discarded, and the cells were washed one time with 1×PBS. After centrifugation the cells were stained with FITC conjugated c-kit antibody (MBL International, Cat# K0105-4) in […] 1×PBS at 4° C. for 1 h. The samples were read and analysized with FACSCalibur flow cytometer (Becton Dicknson).
# [3] = system: c-Kit tyrosine kinase receptor (N822K mutation); assay: Western blot analysis of c-Kit in Kasumi-1 cells; assay type: cell-based, human; conditions: 100 nM and 400 nM
# Description: The results of the FACS analysis were confirmed with Western blot analysis (see FIG. 5). […] In contrast, 17-AAG had no effect of c-Kit protein levels.
# c-kit [4] = assay: FACS-based c-kit degradation assay in HEL92.1.7 cells; assay type: cell-based; conditions: about 18 h, compounds at 0.5 and 0.05 μM, 17-AAG at 0.5 μM
# Description: as §1
# MV 4-11 cells (FLT3-ITD) = assay: Cell survival in MV-4-11 cells (Cell Counting Kit-8); assay type: cell-based, human; conditions: Homo sapiens, MV4-11, 72 hours
# Description: Human acute myelogenous leukemia (AML) cell line, MV 4-11 (ATCC #CRL-9591), was obtained from the American Type Culture Collection (ATCC; Manassas, Va., USA). Growth of this tumor cell line is dependent upon the expression of an activated form of the FLT3 tyrosine kinase receptor carrying an internal tandem duplication (ITD) mutation, which is the most common molecular defect associated with AML (K. W. Yee et al., Blood 100:2941-2949, 2002). MV 4-11 cells (20,000 cells/well) were cultured in 96-well plates and maintained at 37° C. for several hours. The cells were incubated at 37° C. for 72 hours with various concentrations of compounds of the invention, 17AAG, or DMAG. 17AAG and DMAG are Hsp90 inhibitors that are currently in clinical trials and are used here as positive controls for Hsp90 inhibition. Cell survival was measured with Cell Counting Kit-8 (Dojindo Laboratories, Cat # CK04).
# [5] = system: Kasumi-1 cells (c-Kit N822K); assay: Cell survival in Kasumi-1 cells (Cell Counting Kit-8); assay type: cell-based, human; conditions: Homo sapiens, 72 hours
# Description: Kasumi-1 cells (20,000 cells/well) were cultured in 96-well plates and maintained at 37° C. for several hours. […] 17AAG and DMAG are Hsp90 inhibitors that are currently in clinical trials and are used here as positive controls for Hsp90 inhibition. […] Cell survival was measured with Cell Counting Kit-8 (Dojindo Laboratories, Cat # CK04).
# phosphorylated Bcr-Abl = assay: Degradation of Bcr-Abl in KU812 cells (Western blot); assay type: cell-based; conditions: 18 hours
# Description: KU812 chronic myeloid leukemia cells (ATCC) (2×10^6 cells), which harbor the Philadelphia chromosome that produces Bcr-Abl tyrosine kinase, were treated (0.1 μM and 1.0 μM) with either Compound 226, 17-AAG or 17-DMAG. After 18 hours, the cells were lysed with 1× lysis buffer, and a western blot was perform using anti-BCR-ABL antibody to detect phosphorylated Bcr-Abl.
# A375 cells (B-raf V600E) = assay: Cell survival in A375 melanoma cells (Cell Counting Kit-8); assay type: cell-based, human; conditions: 72 hours
# Description: Human melanoma cell line, A375 (2×10^6 cells), which contains the V600E mutation in the B-raf protein that confers constitutive […] kinase activity, was obtained from American Type Culture Collection. A375 cells (20,000 cells/well) were cultured in 96-well plates and maintained at 37° C. for several hours. The cells were incubated at 37° C. for 72 hours with various concentrations of compound 226, 17AAG or 17DMAG. 17AAG and 17DMAG are Hsp90 inhibitors that are currently in clinical trials and are used here as positive controls for Hsp90 inhibition. Cell survival was measured with Cell Counting Kit-8 (Dojindo Laboratories, Cat # CK04).
# [6] = system: Karpas-299 cells (NPM-ALK); assay: Cell survival in Karpas-299 cells (Cell Counting Kit-8); assay type: cell-based, human; conditions: 72 hours
# Description: Growth of this tumor cell line is dependent upon the expression of the NPM-ALK fusion protein. Karpas-299 cells (20,000 cells/well) were cultured in 96-well plates and maintained at 37° C. for several hours. The cells were incubated at 37° C. for 72 hours with various concentrations of compound 226 of the invention, 17AAG, and 17DMAG. 17AAG and 17DMAG are Hsp90 inhibitors that are currently in clinical trials and are used here as positive controls for Hsp90 inhibition. Cell survival was measured with Cell Counting Kit-8 (Dojindo Laboratories, Cat # CK04).
compound,measurement,setting,value
"C[C@@H]1C[C@H]2O[C@@H]2/C=C\C=C\C(=O)Cc2c(Cl)c(O)cc(O)c2C(=O)O1 [Radicical, Radicicol]",IC50,K562 cells (Bcr-Abl),331 nM
"CCc1cc(-c2nnc(S)n2-c2cccc3ccccc23)c(O)cc1O [Compound 49, 3-(2,4-Di-hydroxy-5-ethyl-phenyl)-4-(naphthalen-1-yl)-5-mercapto-triazole]",toxicity (effect on body weights),[1],not toxic; also recorded: not associated with significant toxicity
"C=CCNC1=C2C[C@@H](C)C[C@H](OC)[C@H](O)[C@@H](C)/C=C(\C)[C@H](OC(N)=O)[C@@H](OC)/C=C\C=C(/C)C(=O)NC(=CC1=O)C2=O [Compound 17-AAG, 17-allylamino-17-demethoxygeldanamycin, reference compound]","c-kit degradation (c-kit positive population, FACS)",c-kit [2],could not induce c-kit degradation
same,c-Kit protein levels (Western blot),[3],no effect
same,"c-kit degradation (c-kit positive population, FACS)",c-kit [4],could not induce c-kit degradation
"CCCn1ccc2c(-n3c(S)nnc3-c3cc(C4CC4)c(O)cc3O)ccc(OC)c21 [Compound 205, 3-(2,4-di-hydroxy-5-cyclopropyl-phenyl)-4-(1-propyl-7-methoxy-indol-4-yl)-5-mercapto-[1,2,4] triazole]",IC50,MV 4-11 cells (FLT3-ITD),49 nM
"COc1ccc(-n2c(S)nnc2-c2cc(C(C)C)c(O)cc2O)c2ccn(C(C)C)c12 [Compound 208, 3-(2,4-di-hydroxy-5-isopropyl-phenyl)-4-(1-isopropyl-7-methoxy-indol-4-yl)-5-mercapto-[1,2,4] triazole]",IC50,[5],49 nM
same,IC50,MV 4-11 cells (FLT3-ITD),20 nM
"CCc1cc(-c2nnc(S)n2-c2ccc(OC)c3c2ccn3C(C)C)c(O)cc1O [Compound 188, 3-(2,4-Dihydroxy-5-ethyl-phenyl)-4-(1-isopropyl-7-methoxy-indol-4-yl)-5-mercapto-[1,2,4]triazole]",IC50,[5],72 nM
same,"c-kit degradation (c-kit positive population, FACS)",c-kit [2],induced c-kit degradation
same,"c-kit degradation (c-kit positive population, FACS)",c-kit [4],induced c-kit degradation
same,IC50,MV 4-11 cells (FLT3-ITD),25 nM
CO[C@H]1/C=C\C=C(/C)C(=O)NC2=CC(=O)C(NCCN(C)C)=C(C[C@@H](C)C[C@H](OC)[C@H](O)[C@@H](C)/C=C(\C)[C@@H]1OC(N)=O)C2=O [Compound 17-DMAG],degradation of phosphorylated Bcr-Abl,phosphorylated Bcr-Abl; 0.1 μM,partial degradation
same,degradation of phosphorylated Bcr-Abl,phosphorylated Bcr-Abl; 1.0 μM,complete degradation
"CC(C)c1cc(-c2nnc(S)n2-c2ccc3c(ccn3C)c2)c(O)cc1O [Compound 221, 3-(2,4-di-hydroxy-5-isopropyl-phenyl)-4-(N-methyl-indol-5-yl)-5-mercapto-[1,2,4] triazole]","c-kit degradation (c-kit positive population, FACS)",c-kit [2],induced c-kit degradation
same,c-Kit protein levels (Western blot),[3],induced the degradation of c-Kit
same,"c-kit degradation (c-kit positive population, FACS)",c-kit [4],induced c-kit degradation
"CO[C@H]1/C=C\C=C(/C)C(=O)NC2=CC(=O)C(NCCN(C)C)=C(C[C@@H](C)C[C@H](OC)[C@H](O)[C@@H](C)/C=C(\C)[C@@H]1OC(N)=O)C2=O [Compound 17DMAG, 17-(2-dimethylaminoethyl-1)amino-17-desmethoxygeldanamycin]",IC50,A375 cells (B-raf V600E),4 nM
same,IC50,[6],62 nM
